According to US10392383B2, “3-(1H-benzo[d]imidazol-2-yl)-1H-pyrazolo[4,3-b]pyridines and therapeutic uses thereof” (Samumed, LLC, priority 2015, dated 2019):

Key:
[1] = test system: primary human mesenchymal stem cells (hMSCs); experiment: Induction of chondrogenesis in human mesenchymal stem cells (nodule staining with Rhodamine B / Nile Red); type: cell-based; conditions: for Emax: TGF-β3 (10 ng/mL) as positive control, read-out: Max. Activity as % TGF-β3 activity; for EC50: concentration required to induce 50% levels of chondrogenesis vs TGF-β3, read-out: Conc (nM) of 50% TGF-β3 activity
Protocol: Representative compounds were screened using primary human mesenchymal stem cells (hMSCs) to determine their ability to induce chondrogenesis (process by which cartilage is developed).
Human Mesenchymal Stem Cell Culture: Primary human mesenchymal stem cells (hMSCs) were purchased from Lonza (Walkersville, Md.) and expanded in Mesenchymal Stem Cell Growth Media (Lonza). Cells between passage 3 and 6 were used for the experiments.
Compound Screening: Each compound was dissolved in DMSO as a 10 mM stock and used to prepare compound source plates. For the 96 well assay, serial dilution (1:3, 6-point dose-response curves from 2700 nM to 10 nM) and compound transfer was performed using the ECHO 550 (Labcyte, Sunnyvale, Calif.) into 96-well clear bottom assay plates (Greiner Bio-One) with appropriate DMSO backfill for a final DMSO concentration of 0.03%. hMSCs were plated at 20,000 cells/well in 250 μL/well Incomplete Chondrogenic Induction Medium (Lonza; DMEM, dexamethasone, ascorbate, insulin-transferrin-selenium [ITS supplement], gentamycin-amphotericin [GA-1000], sodium pyruvate, proline and L-glutamine). TGF-β3 (10 ng/mL) was used as a positive control for differentiation while negative control wells were treated with 75 nL DMSO for normalization and calculating EC50 values. For the 384 well assay, serial dilution (1:3, 8-point dose-response curves from 5000 nM to 2.2 nM) and compound transfer was performed using the ECHO 550 (Labcyte, Sunnyvale, Calif.) into 384-well clear bottom assay plates (Greiner Bio-One) with appropriate DMSO backfill for a final DMSO concentration of 0.03%. hMSCs were plated at 8,000 cells/well in 80 μL/well Incomplete Chondrogenic Induction Medium (Lonza; DMEM, dexamethasone, ascorbate, insulin-transferrin-selenium [ITS supplement], gentamycin-amphotericin [GA-1000], sodium pyruvate, proline and L-glutamine). TGF-β3 (10 ng/mL) was used as a positive control for differentiation while negative control wells were treated with 25 nL DMSO for normalization and calculating EC50 values. Cells were incubated at 37° C. and 5% CO2 for 6 days. To image chondrogenic nodules, the cells were fixed using 4% formaldehyde (Electron Microscopy Sciences), and stained with 2 μg/mL Rhodamine B (Sigma-Aldrich) and 20 μM Nile Red (Sigma-Aldrich) [Johnson K., et. al, A Stem Cell-Based Approach to Cartilage Repair, Science, (2012), 336(6082), 717-721]. The nodules imaged (25 images per well for 96 well plates and 9 images per well for 384 well plates at 10× magnification) by excitation at 531 nm and emission at 625 nm and quantified using the CellInsight CX5 (Thermo Scientific). Area of nodules in each well was normalized to the average of 3 DMSO treated wells on the same plate using Excel (Microsoft Inc.). The normalized averages (fold change over DMSO) of 2 or 3 replicate wells for each compound concentration were calculated. Due to solubility limitations of some of the compounds, curve fitting was incomplete leading to inaccurate EC50 determinations.
Using TGF-β3 as a positive control, the concentration of representative compounds required to induce 50% levels of chondrogenesis is reported. In addition, the maximum activity of each compound and the respective dose that each compound reached maximum chondrogenesis activity is reported.

IL-6 (THP-1 cells) = experiment: IL-6 inhibition in LPS-stimulated THP-1 monocytes (HTRF); type: cell-based; conditions: Homo sapiens, IL-6 HTRF; for EC50: 500 ng/mL LPS, Table 6; for inhibition at 10 µM: LPS, Table 6, read-out: percent inhibition at 10 μM (given in parentheses for EC50 >10 μM)
Protocol: Human Monocyte Cell Culture: Human monocyte cell line (THP-1 cells; Catalog # TIB-202, ATCC, Manassas, Va.) were cultured in Roswell Park Memorial Institute (RPMI) 1640 Medium (Catalog #21870-100, Buffalo, N.Y.) with 1% L-glutamine, 1% HEPES, 1% Sodium Pyruvate, 2% Sodium Bicarbonate supplemented with 100 units/mL penicillin, 50 μg/mL streptomycin, 2-mercaptoethanol (0.05 mM) [basal medium] and 10% fetal bovine serum (Catalog #16140089, Life Technologies, Carlsbad, Calif.) at 37° C. and 5% CO2.
Compound Screening: THP-1 cells were cultured in basal media with 1% FBS for 24 hours before the start of the assay. Each compound was dissolved in DMSO as a 10 mM stock and used to prepare compound source plates. Serial dilution (1:3, 10-point dose-response curves starting from 10 μM) and compound transfer was performed using the ECHO 550 (Labcyte, Sunnyvale, Calif.) into 384-well white low volume assay plates (Greiner Bio-One) with appropriate DMSO backfill for a final DMSO concentration of 0.1%. THP-1 cells were plated at 5000 cells/well in the 384-well plates and incubated at 37° C. for 2 h. 500 ng/mL of LPS was added after 2 hours and cells were incubated for another 22 hours at 37° C. Plates were spun in a centrifuge for 1 minute at […] and a mixture of anti-IL6 XL665, and anti-IL6 Cryptate diluted in reconstitution buffer (Cisbio Inc.) was added to each well. Following incubation for 3 hrs at room temperature, Homogeneous Time-Resolved Fluorescence (HTRF) was measured using the Envision (Perkin Elmer) at 665 nm and […]. The ratio of fluorescence at 665 nm to 620 nm was used as a readout for IL6 quantification. All samples were processed in duplicate. Readings were normalized to DMSO treated cells and normalized activities were utilized for EC50 calculations using the dose-response log (inhibitor) vs. response-variable slope (four parameters) nonlinear regression feature available in GraphPad Prism 5.0 (or Dotmatics). For EC50 of >10 μM, the percent inhibition at 10 μM is provided.

SMILES | Emax [1] [%] | EC50 [1] [nM] | EC50 (IL-6 (THP-1 cells)) [nM] | inhibition at 10 µM (IL-6 (THP-1 cells)) [%]
CC(C)(C)C(=O)Nc1cncc(-c2ccc3[nH]nc(-c4nc5c(-c6ccc(F)cc6)cccc5[nH]4)c3n2)c1 [Compound 36, N-(5-(3-(4-(4-Fluorophenyl)-1H-benzo[d]imidazol-2-yl)-1H-pyrazolo[4,3-b]pyridin-5-yl)pyridin-3-yl)pivalamide] | 86 | 30 | > 10000 | 25.7
Fc1ccc(-c2cccc3[nH]c(-c4n[nH]c5ccc(-c6cncc(CN7CCCC7)c6)nc45)nc23)cc1 [Compound 42, 3-(4-(4-Fluorophenyl)-1H-benzo[d]imidazol-2-yl)-5-(5-(pyrrolidin-1-ylmethyl)pyridin-3-yl)-1H-pyrazolo[4,3-b]pyridine] | 23 |  | 388 | 
O=C(Nc1cncc(-c2ccc3[nH]nc(-c4nc5c(-c6ccc(F)cc6)cccc5[nH]4)c3n2)c1)C1CCC1 [Compound 49, N-(5-(3-(4-(4-Fluorophenyl)-1H-benzo[d]imidazol-2-yl)-1H-pyrazolo[4,3-b]pyridin-5-yl)pyridin-3-yl)cyclobutanecarboxamide] | 69 | 30 | > 10000 | 43.6
Fc1ccc(-c2cccc3[nH]c(-c4n[nH]c5ccc(-c6cncnc6)nc45)nc23)cc1 [Compound 55, 3-(4-(4-Fluorophenyl)-1H-benzo[d]imidazol-2-yl)-5-(pyrimidin-5-yl)-1H-pyrazolo[4,3-b]pyridine] | 96 | 10 | > 10000 | 38.8
Nc1cncc(-c2ccc3[nH]nc(-c4nc5c(-c6ccccc6F)cccc5[nH]4)c3n2)c1 [Compound 59, 5-(3-(4-(2-Fluorophenyl)-1H-benzo[d]imidazol-2-yl)-1H-pyrazolo[4,3-b]pyridin-5-yl)pyridin-3-amine] | 82 | 30 | 487 | 
c1cncc(-c2ccc3[nH]nc(-c4nc5c(-c6cccnc6)cccc5[nH]4)c3n2)c1 [Compound 88, 5-(Pyridin-3-yl)-3-(4-(pyridin-3-yl)-1H-benzo[d]imidazol-2-yl)-1H-pyrazolo [4,3-b]pyridine] | 58 | 30 | > 10000 | 31.8
CC(C)C(=O)Nc1cncc(-c2ccc3[nH]nc(-c4nc5c(-c6cccnc6)cccc5[nH]4)c3n2)c1 [Compound 93, N-(5-(3-(4-(Pyridin-3-yl)-1H-benzo[d]imidazol-2-yl)-1H-pyrazolo[4,3-b]pyridin-5-yl)pyridin-3-yl)isobutyramide] | 36 |  | > 10000 | 42.5
CC(C)Nc1cncc(-c2ccc3[nH]nc(-c4nc5c(-c6cccnc6)cccc5[nH]4)c3n2)c1 [Compound 96, N-Isopropyl-5-(3-(4-(pyridin-3-yl)-1H-benzo[d]imidazol-2-yl)-1H-pyrazolo [4,3-b]pyridin-5-yl)pyridin-3-amine] | 24 |  | 1740 | 
Cc1ccncc1-c1ccc2[nH]nc(-c3nc4c(-c5ccncc5)cccc4[nH]3)c2n1 [Compound 117, 5-(4-Methylpyridin-3-yl)-3-(4-(pyridin-4-yl)-1H-benzo[d]imidazol-2-yl)-1H-pyrazolo[4,3-b]pyridine] | 45 |  | > 10000 | 51.4
O=C(Cc1ccccc1)Nc1cncc(-c2ccc3[nH]nc(-c4nc5c(-c6ccncc6)cccc5[nH]4)c3n2)c1 [Compound 122, 2-Phenyl-N-(5-(3-(4-(pyridin-4-yl)-1H-benzo[d]imidazol-2-yl)-1H-pyrazolo [4,3-b]pyridin-5-yl)pyridin-3-yl)acetamide] | 75 | 300 | > 10000 | 40.3
CCCC(=O)Nc1cncc(-c2ccc3[nH]nc(-c4nc5c(-c6ccncc6)cccc5[nH]4)c3n2)c1 [Compound 129, N-(5-(3-(4-(Pyridin-4-yl)-1H-benzo[d]imidazol-2-yl)-1H-pyrazolo[4,3-b]pyridin-5-yl)pyridin-3-yl)butyramide] | 59 | 2700 | > 10000 | 34.9
CCNCc1cncc(-c2ccc3[nH]nc(-c4nc5c(-c6ccccn6)cccc5[nH]4)c3n2)c1 [Compound 146, N-((5-(3-(4-(Pyridin-2-yl)-1H-benzo[d]imidazol-2-yl)-1H-pyrazolo[4,3-b]pyridin-5-yl)pyridin-3-yl)methyl)ethanamine] | 279 | 1670 | > 10000 | 19.5
CCC(=O)Nc1cncc(-c2ccc3[nH]nc(-c4nc5c(N6CCCCC6)cccc5[nH]4)c3n2)c1 [Compound 169, N-(5-(3-(4-(Piperidin-1-yl)-1H-benzo[d]imidazol-2-yl)-1H-pyrazolo[4,3-b]pyridin-5-yl)pyridin-3-yl)propionamide] | 66 | 1670 | 161 | 
CN(C)Cc1cncc(-c2ccc3[nH]nc(-c4nc5c(N6CCCCC6)cccc5[nH]4)c3n2)c1 [Compound 181, N,N-dimethyl-1-(5-(3-(4-(piperidin-1-yl)-1H-benzo[d]imidazol-2-yl)-1H-pyrazolo[4,3-b]pyridin-5-yl)pyridin-3-yl)methanamine] | 52 | 10 | 4940 | 
CN1CCN(c2cccc3[nH]c(-c4n[nH]c5ccc(-c6cncc(N)c6)nc45)nc23)CC1 [Compound 227, 5-(3-(4-(4-Methylpiperazin-1-yl)-1H-benzo[d]imidazol-2-yl)-1H-pyrazolo [4,3-b]pyridin-5-yl)pyridin-3-amine] | 50 |  | 8320 | 
CC(C)C(=O)Nc1cncc(-c2ccc3[nH]nc(-c4nc5c(N6CCN(C)CC6)cccc5[nH]4)c3n2)c1 [Compound 233, N-(5-(3-(4-(4-Methylpiperazin-1-yl)-1H-benzo[d]imidazol-2-yl)-1H-pyrazolo[4,3-b]pyridin-5-yl)pyridin-3-yl)isobutyramide] | 52 | 30 | > 10000 | 42.9
O=C(Cc1ccccc1)Nc1cncc(-c2ccc3[nH]nc(-c4nc5ccccc5[nH]4)c3n2)c1 [Compound 262, N-(5-(3-(1H-Benzo[d]imidazol-2-yl)-1H-pyrazolo[4,3-b]pyridin-5-yl)pyridin-3-yl)-2-phenylacetamide] | 37 |  | 1090 | 
